Literature values in US8394428B1, “Formulations and methods for preventing eyebrow hair loss” (RMV Trademarks, LLC, priority 2010, dated 2013).

Test system: hair loss in human scalp
Details: topical application, after administration of cyclophosphamide

Question: Which “Prevention or retardation of hair loss” value does the source give for C=C1/C(=C\C=C2/CCC[C@]3(C)[C@@H]([C@H](C)CCCC(C)(C)O)CC[C@@H]23)C[C@@H](O)C[C@@H]1O [1,25-dihydroxyvitamin D3] here?
Answer: failed to prevent or retard hair loss
